Experimental data from patent publication US20230293560A1, “METHOD FOR MODULATING THE BLADDER MICROBIOME TO IMPROVE BLADDER HEALTH” (Kimberly-Clark Worldwide, Inc., priority 2020, published 2023).
Several values for one entry are separate records, joined by “and”; a condition that tells them apart may be missing. Equal values may be shown once.

Key:
E. faecalis = experiment: High throughput assay screening of prebiotics; type: cell-based, Enterococcus faecalis; set-up: key: ++: if growth and fermentation was equal to or greater than the positive control; +: if growth and fermentation was less than the positive control; +: if weak or no growth or fermentation; +^2: Bacteria demonstrated growth but no fermentation on the prebiotic; conditions: 2% w/v prebiotic in API 50 CHL media; for growth and fermentation vs positive control, Ef-2: E. faecalis KC16-7171-3, Bladder; for growth and fermentation vs positive control, Ef-3: E. faecalis KC17-3969-2B, Bladder; for growth and fermentation vs positive control, Ef-4: E. faecalis KC17-4331-3, Bladder
Method: (§1) Most of the prebiotic compounds were initially tested in a high throughput assay screening process, described further in the Test Methods section herein, but three prebiotics (as noted in Table 3) were tested using a plate assay screening process as described in the Test Methods section herein. The prebiotics were tested against the commensal bacterial species of Lactobacillus crispatus, Lactobacillus gasseri, and Lactobacillus jensenii and against the pathogenic bacterial species of Streptococcus anginosus and Enterococcus faecalis as shown in Table 2. The bacterial species were taken from different sources, listed as culture collection, bladder, and vagina.
(§2) The results of the assay plate screening of the prebiotic compounds of Table 1 against the bacterial species of Table 2 is documented in Table 3 with the results being described by the following legend: • ++ if growth and fermentation was equal to or greater than the positive control • + if growth and fermentation was less than the positive control • […] if weak or no growth or fermentation • NT if not tested Some codes were not tested based on the use or non-use by the bacteria, as a way to efficiently move through the assay plate screening to the competition assay, described below.
(§3) • 1. Create a 2% w/v stock of prebiotic or positive control (glucose/dextrose) to be tested in API 50 CHL media (Biomerieux, Marcy-I'Étoile, France). API 50 CHL media contains minimal amounts of carbon for growth, and a bromocresol purple as a pH indicator of fermentation. Filter sterilize media with a […]. Store at 4-6° C. until use. • 2. Add 180 μL of media containing the prebiotic to a sterile, flat bottom 96-well microtiter plate (Corning, Corning, NY). • 3. From a freezer stock subculture the bacteria twice into De Man, Rogosa and Sharpe (MRS) broth (BD Difco, Becton Dickinson, Franklin Lakes, NJ), 37° C., stationary, anaerobic, overnight. • 4. From the last subculture, plate onto an MRS agar plate (Teknova, Hollister, CA) and grow 37° C., stationary, anaerobic, overnight. • 5. Create a bacterial suspension by using a sterile tipped swab to transfer colonies of bacteria into a PBS suspension blank to a 0.5 MacFarland (S. anginosus or E. faecalis) or a 1 MacFarland (Lactobacillus species) from the MRS agar plate. • 6. Enumerate the starting culture. • 7. Inoculate the media alone and media containing the prebiotic or positive control with 20 μL of the bacterial suspension. • 8. Place the plate into a spectrophotometer (Molecular Devices, San Jose, CA) and read the plate every 20 minutes for 24-48 hours. Read wavelengths (OD 430, OD 590, and OD 660). A color change to yellow caused by a drop in pH will be read by an increase in the OD430 value and a decrease in the OD590 value and is indicative of bacterial fermentation. An increase in OD660 values is indicative of an increase in turbidity and bacterial growth.

S. anginosus = experiment: High throughput assay screening of prebiotics; type: cell-based, Streptococcus anginosus; set-up: key: ++: if growth and fermentation was equal to or greater than the positive control; +: if growth and fermentation was less than the positive control; +: if weak or no growth or fermentation; +^2: Bacteria demonstrated growth but no fermentation on the prebiotic; conditions: S. anginosus KC18-1131-3B, Bladder; 2% w/v prebiotic in API 50 CHL media
Method: as §1, §2, §3

L. crispatus = experiment: High throughput assay screening of prebiotics; type: cell-based, Lactobacillus crispatus; set-up: key: ++: if growth and fermentation was equal to or greater than the positive control; +: if growth and fermentation was less than the positive control; +: if weak or no growth or fermentation; +^2: Bacteria demonstrated growth but no fermentation on the prebiotic; conditions: 2% w/v prebiotic in API 50 CHL media; for growth and fermentation vs positive control, Lc-3: L. crispatus KC18-1173-1, Bladder; for growth and fermentation vs positive control, Lc-4: L. crispatus KC18-1174-1, Vagina
Method: as §1, §2, §3

L. jensenii = experiment: High throughput assay screening of prebiotics; type: cell-based, Lactobacillus jensenii; set-up: key: ++: if growth and fermentation was equal to or greater than the positive control; +: if growth and fermentation was less than the positive control; +: if weak or no growth or fermentation; +^2: Bacteria demonstrated growth but no fermentation on the prebiotic; conditions: 2% w/v prebiotic in API 50 CHL media; for growth and fermentation vs positive control, Lj-1: L. jensenii KC17-4297-18, Bladder
Method: as §1, §2, §3

[1] = system: commensal and pathogenic bacterial species; experiment: Prebiotic screening, summary in words across species; type: cell-based; conditions: for overall outcome of the screening of Table 3, in words: commensal (L. crispatus, L. gasseri, L. jensenii) and pathogenic (S. anginosus, E. faecalis) species
Method: as §1, §2, §3
• 1. An in house bacterial agar was created based on MRS agar (Kaplan and Hutkins, 2000) where the glucose is substituted for the prebiotic to be tested (either dextran MW ˜6,000, alpha-cyclodextrin, glucomannan, or pectin), bromocresol purple was included as a pH indicator. • 2. Bacteria were enumerated on each agar and color changes were recorded. Method for Competition Assay (Modified from “In Vitro Evaluation of Nutrients that Selectively Confer a Competitive Advantage to Lactobacilli” Vongsa et al, Beneficial Microbes 2016) • 1. Create 2% w/v stock of prebiotic or positive control (glucose/dextrose) as described above. • 2. From a freezer stock subculture the bacteria twice into De Man, Rogosa and Sharpe (MRS) broth (BD Difco, Becton Dickinson, Franklin Lakes, NJ), 37° C., stationary, anaerobic, overnight. • 3. From the last subculture, plate onto an MRS agar plate for L. crispatus KC18-1173-1 or blood agar for S. anginosus KC18-1131-3B, grow 37° C., stationary, anaerobic, overnight. • 4. […]

L. gasseri = experiment: High throughput assay screening of prebiotics; type: cell-based, Lactobacillus gasseri; set-up: key: ++: if growth and fermentation was equal to or greater than the positive control; +: if growth and fermentation was less than the positive control; +: if weak or no growth or fermentation; +^2: Bacteria demonstrated growth but no fermentation on the prebiotic; conditions: 2% w/v prebiotic in API 50 CHL media; for growth and fermentation vs positive control, Lg-1: L. gasseri KC16-7135-1, Bladder; for growth and fermentation vs positive control, Lg-2: L. gasseri KC16-7171-1, Bladder; for growth and fermentation vs positive control, Lg-3: L. gasseri KC18-1131-2, Bladder
Method: as §1, §2, §3

[2] = system: ratio of L. crispatus/S. anginosus; experiment: Therapeutic effect protocol (competition assay); type: cell-based, Lactobacillus crispatus; Streptococcus anginosus; conditions: Table 6; prebiotic 2%; Lc-3 vs Sa-2
Source text: As used herein, the term “therapeutic effect” refers to the ability of the compositions and formulations of the present disclosure to stimulate the growth of L. crispatus relative S. anginosus measured according to the therapeutic effect protocol described below. The therapeutic effect can be expressed as a ratio of L. crispatus to S. anginosus and is desirably greater than about 100, more preferably greater than about 500 and more desirably greater than about 1,000.
(§4) Further testing was conducted to put the prebiotic compounds in competition assay testing, as further described in the test methods section herein. In the competition assay testing, each competition involved testing a single prebiotic compound with the commensal bacteria species of L. crispatus, KC18-1173-1, Bladder (“Lc-3”—Table 2) against the pathogenic bacterial species of S. anginosus, KC18-1131-3B, Bladder (“Sa-2”—Table 2).
(§5) • 1. An in house bacterial agar was created based on MRS agar (Kaplan and Hutkins, 2000) where the glucose is substituted for the prebiotic to be tested (either dextran MW ˜6,000, alpha-cyclodextrin, glucomannan, or pectin), bromocresol purple was included as a pH indicator. • 2. Bacteria were enumerated on each agar and color changes were recorded. Method for Competition Assay (Modified from “In Vitro Evaluation of Nutrients that Selectively Confer a Competitive Advantage to Lactobacilli” Vongsa et al, Beneficial Microbes 2016) • 1. Create 2% w/v stock of prebiotic or positive control (glucose/dextrose) as described above. • 2. From a freezer stock subculture the bacteria twice into De Man, Rogosa and Sharpe (MRS) broth (BD Difco, Becton Dickinson, Franklin Lakes, NJ), 37° C., stationary, anaerobic, overnight. • 3. From the last subculture, plate onto an MRS agar plate for L. crispatus KC18-1173-1 or blood agar for S. anginosus KC18-1131-3B, grow 37° C., stationary, anaerobic, overnight. • 4. Create a bacterial suspension by using a sterile tipped swab to transfer colonies of bacteria into a PBS suspension blank to a 2 MacFarland for both species. • 5. Enumerate the starting culture. • 6. Add 9.8 mL of prebiotic media into a 15 mL conical tube. • 7. Add 100 μL of the diluted bacteria to the media, incubate at 37° C., anaerobic, 48 hours. • 8. Harvest 100 μL from the tube containing the prebiotic and plate onto MRS agar and tryptic soy agar (TSA). • 9. Enumerate the bacteria on the MRS agar (both the L. crispatus and the S. anginosus). Small colonies are counted as S. anginosus and large colonies are counted as L. crispatus. • 10. Enumerate the bacteria on the TSA plate. […] Growth of the bacteria in the negative control (CHL media without prebiotic) was subtracted from the growth in the presence of the prebiotic or formulation.
Colonies of L. crispatus and S. anginosus were tested against in the competition method assay test method as described above. The therapeutic effect was calculated by comparing the colony forming units recovered after the competition assay of both L. crispatus and S. anginosus and calculating the ratio of L. crispatus/S. anginosus. A larger number indicates an increase in L. crispatus and/or a decrease in S. anginosus and a smaller number indicates a decrease in L. crispatus and/or an increase in S. anginosus.

[3] = system: S. anginosus, KC18-1131-3B, Bladder (Sa-2); type: cell-based; conditions: Table 6, prebiotic 2%, one line per replicate
Method: as §4, §5

[4] = system: L. crispatus, KC18-1173-1, Bladder (Lc-3); experiment: Competition assay, L. crispatus recovered; type: cell-based, Lactobacillus crispatus; conditions: Table 6, prebiotic 2%, one line per replicate
Method: as §4, §5

[5] = change vs start, background growth in CHL media subtracted, MRS agar

Row | SMILES | growth and fermentation vs positive control, Ef-2 (E. faecalis) | growth and fermentation vs positive control, Ef-3 (E. faecalis) | growth and fermentation vs positive control, Ef-4 (E. faecalis) | growth and fermentation vs positive control, Sa-2 (S. anginosus) | growth and fermentation vs positive control, Lc-3 (L. crispatus) | growth and fermentation vs positive control, Lc-4 (L. crispatus) | growth and fermentation vs positive control, Lj-1 (L. jensenii) | overall outcome of the screening of Table 3, in words [1] | growth and fermentation vs positive control, Lg-1 (L. gasseri) | growth and fermentation vs positive control, Lg-2 (L. gasseri) | growth and fermentation vs positive control, Lg-3 (L. gasseri) | other results
1 | OC[C@H]1O[C@](O)(CO)[C@@H](O)[C@@H]1O [Beta-D-fructose, Beta-D-Fructose] | ++ | ++ | ++ | ++ | ++ | ++ | ++ | able to provide growth on the commensal bacterial species, but also provided growth on the pathogenic bacterial species | + | + | + | growth and fermentation vs positive control, Lc-2 (L. crispatus; L. crispatus KC16-7134-3C, Bladder): ++; growth and fermentation vs positive control, Lj-2 (L. jensenii; L. jensenii KC17-4347-1, Bladder): +; growth and fermentation vs positive control, Lj-3 (L. jensenii; L. jensenii KC17-4368-2, Bladder): ++; growth and fermentation vs positive control, Lg-4 (L. gasseri; L. gasseri KC18-1142-2, Bladder): +
2 | OC[C@H]1O[C@H](O[C@H]2O[C@H](CO)[C@@H](O)[C@H](O)[C@H]2O)[C@H](O)[C@@H](O)[C@@H]1O [D-Trehalose] | ++ | ++ | ++ | ++ | ++ | + | + |  | ++ | ++ | ++ | 
3 | OC[C@@H](O)[C@@H](O[C@@H]1O[C@H](CO)[C@H](O)[C@H](O)[C@H]1O)[C@H](O)[C@@H](O)CO [Lactitol] |  |  |  |  |  |  |  | not able to provide growth for most, if not all, commensal and pathogenic bacterial species |  |  |  | growth and fermentation vs positive control, Ef-1 (E. faecalis; E. faecalis ATCC BAA-2128, Culture Collection): +; Therapeutic Effect (ratio of L. crispatus/S. anginosus) [2]: 2.95E−02 (2×) and 1.23E−01 (2×); growth of commensal bacterial species, in words ([1]; commensal species from culture collection, the bladder, or the vagina): did not show any positive growth; Sa-2 MRS Δ [3, 5]: 0.75 Log CFU/mL and 0.69 Log CFU/mL; Sa-2 TSA Δ ([3]; change vs start, background growth in CHL media subtracted, TSA): 0.58 Log CFU/mL and 0.52 Log CFU/mL; Sa-2 MRS end ([3]; competition Sa-2 vs Lc-3, 48 hours, anaerobic, enumerated on MRS agar): 7.45 Log CFU/mL and 7.54 Log CFU/mL; Sa-2 TSA end ([3]; competition Sa-2 vs Lc-3, 48 hours, enumerated on TSA): 7.43 Log CFU/mL and 7.65 Log CFU/mL; Lc-3 MRS Δ [4, 5]: 0.77 Log CFU/mL and 0.66 Log CFU/mL; Lc-3 MRS end ([4]; competition Sa-2 vs Lc-3, 48 hours, enumerated on MRS agar): 5.90 Log CFU/mL and 6.74 Log CFU/mL
